Patent USRE46630E1, “Substituted 4-pyridones and their use as inhibitors of neutrophil elastase activity” (Boehringer Ingelheim International GmbH, priority 2012, dated 2017)

Target: T1, Human neutrophil elastase (Homo sapiens, UniProt P08246)
T1 construct: purchased Calbiochem 324681
T1 sequence (P08246 30-267): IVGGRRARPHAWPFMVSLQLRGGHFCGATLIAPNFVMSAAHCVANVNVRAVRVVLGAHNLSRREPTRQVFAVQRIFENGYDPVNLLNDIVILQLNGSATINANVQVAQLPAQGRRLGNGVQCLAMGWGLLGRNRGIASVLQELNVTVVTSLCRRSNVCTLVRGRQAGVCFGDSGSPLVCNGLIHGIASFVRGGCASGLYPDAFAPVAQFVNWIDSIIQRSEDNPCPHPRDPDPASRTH
Test: Human Neutrophil Elastase Assay
Format: biochemical
Conditions: Neutrophil Elastase assay; substrate MeOSuc-Ala-Ala-Pro-Val-AMC 250 μM; 15 min preincubation, 60 min incubation at room temperature; pH 7.5
Procedure, shortened: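 Run in 100 mM Tris, 500 mM NaCl, pH 7.5 with 0.01% BSA, with compounds prediluted in DMSO then buffer (5% DMSO final). Fluorescence was read at 380 nm excitation/460 nm emission after enzyme inactivation. Values were normalised to inactivated-enzyme (0%) and uninhibited-enzyme (100%) controls.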

Row | Structure (SMILES) | IC50
1 | Cc1c(-c2cccc(C(F)(F)F)c2)c(=O)c(C(=O)NCC(C)O)cn1Cc1ccc(C#N)cc1 (stereo not drawn) [Example 1.23] | 19 nM
2 | Cc1c(-c2cccc(C(F)(F)F)c2)c(=O)c(C(=O)NCc2cccnc2)cn1Cc1ccc(C#N)cc1 [Example 1.46] | 5.9 nM
3 | Cc1c(-c2cccc(C(F)(F)F)c2)c(=O)c(C(=O)NCCN2CCCC2=O)cn1Cc1ccc(C#N)cc1 [Example 1.28] | 21.8 nM
4 | Cc1c(-c2cccc(C(F)(F)F)c2)c(=O)c(C(=O)NCc2ccc(S(C)(=O)=O)cc2)cn1Cc1ccc(F)cc1 [Example 2.2] | 1.9 nM
5 | CNC(=O)c1cn(Cc2ccc(C#N)cc2F)c(C)c(-c2ccnc(C(F)(F)F)c2)c1=O [Example 42, 1-(4-Cyano-2-fluoro-benzyl)-2-methyl-4-oxo-2′-trifluoromethyl-1,4-dihydro-[3,4′]bipyridinyl-5-carboxylic acid methylamide] | 46 nM
6 | Cc1c(-c2cccc(C(F)(F)F)c2)c(=O)c(C(=O)NCCN2CCOCC2)cn1Cc1ccc(C#N)cc1 [Example 1.49] | 10.4 nM
7 | Cc1c(-c2cccc(C(F)(F)F)c2)c(=O)c(C(=O)NC2CCNC2=O)cn1Cc1ccc(C#N)cc1 (stereo not drawn) [Example 1.39] | 6.2 nM
8 | Cc1c(-c2cccc(C(F)(F)F)c2)c(=O)c(C(=O)NCc2ccc(S(C)(=O)=O)cc2)cn1Cc1ccc(C#N)cn1 [Example 2.3] | < 1 nM
9 | Cc1c(-c2cccc(C(F)(F)F)c2)c(=O)c(C(=O)NCc2cccnn2)cn1Cc1ccc(C#N)cc1 [Example 1.41] | 3.2 nM
10 | Cc1c(-c2cccc(C(F)(F)F)c2)c(=O)c(C(=O)NCCc2cccnc2)cn1Cc1ccc(C#N)cc1 [Example 1.44] | 7.9 nM
11 | Cc1c(-c2cccc(C(F)(F)F)c2)c(=O)c(C(=O)NCc2ccc(S(C)(=O)=O)cn2)cn1Cc1ccc(C#N)c(F)c1 [Example 4.5] | 1 nM
12 | Cc1c(-c2cccc(C(F)(F)F)c2)c(=O)c(C(=O)NCc2ccc(=O)[nH]c2)cn1Cc1ccc(C#N)cc1 [Example 1.42] | 5.2 nM

Further lines, results first:

Row | IC50 | Structure (SMILES)
13 | 7.5 nM | COCCCNC(=O)c1cn(C(C)c2ccc(C#N)cc2)c(C)c(-c2ccnc(C(F)(F)F)c2)c1=O (stereo not drawn) [Example 9.59]
14 | 9.1 nM | Cc1cc(-c2c(C)n(Cc3ccc(C#N)cc3)cc(C(=O)NCc3ccc(S(C)(=O)=O)cc3)c2=O)ccn1 [Example 6.3]
15 | 4.1 nM | Cc1c(-c2cccc(C(F)(F)F)c2)c(=O)c(C(=O)NCCCN(C)C)cn1C(C)c1ccc(C#N)cc1 (stereo not drawn) [Example 7.1]
16 | 1.2 nM | CNC(=O)c1cn(C(C)c2ccc(C#N)cc2)c(C)c(-c2cccc(C(F)F)c2)c1=O (single isomer, unassigned) [Example 8A]
17 | < 1 nM | Cc1c(-c2cccc(C(F)F)c2)c(=O)c(C(=O)NCc2ccc(S(C)(=O)=O)cc2)cn1Cc1ccc(C#N)cc1 [Example 6.10]
18 | 3.7 nM | CNC(=O)c1cn(C(C)c2ccc(C#N)cc2)c(C)c(-c2ccnc(C(F)(F)F)c2)c1=O (single isomer, unassigned) [Example 9A]
19 | 22.3 nM | Cc1c(-c2ccnc(C(F)(F)F)c2)c(=O)c(C(=O)NC2CCCCC2O)cn1C(C)c1ccc(C#N)cc1 (stereo not drawn) [Example 9.29]
20 | 12.2 nM | Cc1c(-c2cccc(C(F)(F)F)c2)c(=O)c(C(=O)NCCC(C)O)cn1C(C)c1ccc(C#N)cn1 (stereo not drawn) [Example 47.4]
21 | 26.2 nM | Cc1c(-c2ccnc(C(F)(F)F)c2)c(=O)c(C(=O)NC2CCCC2O)cn1C(C)c1ccc(C#N)cc1 (stereo not drawn) [Example 9.35]
22 | 1.4 nM | Cc1nnc(CNC(=O)c2cn(C(C)c3ccc(C#N)cc3)c(C)c(-c3cccc(C(F)(F)F)c3)c2=O)o1 (stereo not drawn) [Example 7.5]
23 | 1.8 nM | Cc1c(-c2cccc(C(F)(F)F)c2)c(=O)c(C(=O)NCCCO)cn1C(C)c1ccc(C#N)cc1 (stereo not drawn) [Example 7.4]
24 | 14.4 nM | Cc1c(-c2ccnc(C(F)(F)F)c2)c(=O)c(C(=O)NCC2CCC2)cn1C(C)c1ccc(C#N)cc1 (stereo not drawn) [Example 9.23]
25 | 19.5 nM | Cc1c(-c2cccc(C(F)F)c2)c(=O)c(C(=O)NCc2ccc(S(C)(=O)=O)cc2)cn1C(C)c1ccc(C#N)cc1 (single isomer, unassigned) [Example 11B]
26 | 75.3 nM | COc1cncc(-c2c(C)n(Cc3ccc(C#N)cc3)cc(C(=O)NCc3ccc(S(C)(=O)=O)cc3)c2=O)c1 [Example 6.7]
27 | 9.5 nM | Cc1c(-c2ccnc(C(F)(F)F)c2)c(=O)c(C(=O)NCC2CCOC2)cn1C(C)c1ccc(C#N)cc1 (stereo not drawn) [Example 9.21]
28 | 1.8 nM | COCCNC(=O)c1cn(C(C)c2ccc(C#N)cc2)c(C)c(-c2cccc(C(F)F)c2)c1=O (stereo not drawn) [Example 8.26]
29 | 290 nM | CCNC(=O)c1cn(C(C)c2ccc(C#N)cc2)c(C)c(-c2cccc(C(F)(F)F)c2)c1=O (single isomer, unassigned) [Example 10B]
30 | 3.4 nM | Cc1nc(CNC(=O)c2cn(C(C)c3ccc(C#N)cc3)c(C)c(-c3cccc(C(F)F)c3)c2=O)no1 (stereo not drawn) [Example 8.23]
31 | 4.5 nM | Cc1c(-c2ccnc(C(F)(F)F)c2)c(=O)c(C(=O)NCCCO)cn1C(C)c1ccc(C#N)cc1 (stereo not drawn) [Example 9.1]
32 | 17.3 nM | Cc1c(-c2ccnc(C(F)(F)F)c2)c(=O)c(C(=O)NCC2CC(O)C2)cn1C(C)c1ccc(C#N)cc1 (stereo not drawn) [Example 9.48]
33 | 2.4 nM | Cc1c(-c2cccc(C(F)F)c2)c(=O)c(C(=O)NCc2cccnc2)cn1C(C)c1ccc(C#N)cc1 (stereo not drawn) [Example 8.18]
